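Cultured in 96-well plates, cells were exposed to test compound for 48 hours across five concentrations. Here, GI50 denotes the concentration required for 50% inhibition of growth. TGI: concentration producing complete growth inhibition.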
How the values were obtained:
Assay in all cases: inhibition of tumour cell growth, NCI panel, 48 h
EKVX NSCLC = system: EKVX NSCLC
MDA-MB-435 = system: MDA-MB-435
SR leukemia = system: SR leukemia
OVCAR-4 ovarian = system: OVCAR-4 ovarian
SK-MEL-2 melanoma = system: SK-MEL-2 melanoma
MALME-3M melanoma = system: MALME-3M melanoma
HT29 colon = system: HT29 colon
OVCAR-5 ovarian = system: OVCAR-5 ovarian
SNB-19 CNS = system: SNB-19 CNS
SN12C renal = system: SN12C renal

SMILES	TGI (EKVX NSCLC) [µM]	TGI (MDA-MB-435) [µM]	TGI (SR leukemia) [µM]	TGI (OVCAR-4 ovarian) [µM]	TGI (SK-MEL-2 melanoma) [µM]	TGI (MALME-3M melanoma) [µM]	TGI (HT29 colon) [µM]	TGI (OVCAR-5 ovarian) [µM]	TGI (SNB-19 CNS) [µM]	TGI (SN12C renal) [µM]	GI50 (SR leukemia) [µM]
CC(C)(C)NC1C2CCC(C)(C1O)C2(C)C (stereo not given)	> 100	> 100	> 100	> 100	> 100	> 100	> 100	> 100	> 100	–	–
N/N=C(\C(=O)Nc1ccc([N+](=O)[O-])cc1)C(C1=Nc2cc([N+](=O)[O-])ccc2NC1)[N+](=O)[O-] (stereo not given)	> 100	> 100	> 100	> 100	> 100	> 100	> 100	> 100	> 100	> 100	–
Cc1cccc(NC(=S)N/N=C(/c2ccccc2)c2ccccn2)c1	4.08	17.6	7.13	17.2	14.5	12.6	17.4	8.68	20	12.4	–
C=C(C(=O)O)[C@@H]1C[C@@H]2O[C@H]1CC(C)=CCC/C(C)=C/CC[C@@]2(C)O	> 100	> 100	> 100	> 100	> 100	> 100	–	> 100	> 100	> 100	–
COC(Cc1ccccc1)NC(C)=O (stereo not given)	> 100	> 100	> 100	> 100	> 100	> 100	> 100	> 100	> 100	> 100	–
CC(=O)O[C@H]1[C@@H](N2CCN(C)CC2)C[C@H]2[C@@H]3CC=C4C[C@@H](N5CCCC5)CC[C@]4(C)[C@H]3CC[C@@]21C	> 100	> 100	5.52	> 100	> 100	51	> 100	> 100	> 100	> 100	–
CC[C@]12C=CCN3CCC4(c5cc([C@@]6(C(=O)OC)CC7CN(CCc8c6[nH]c6ccccc86)C[C@@H]6CCC[C@H]76)c(OC)cc5N(C)C4[C@](O)(C(=O)OC)C1OC(C)=O)C32 (stereo not given in full)	> 3.86	0.0249	0.788	> 8.93	> 6.89	> 5.04	> 3.12	> 10	> 10	> 10	–
COC(=O)[C@@H]1C[C@]2(CC=C(C)C)c3ccccc3N(S(=O)(=O)c3ccccc3)[C@@H]2N1C(=O)OC	27.5	45	99.3	> 100	34.3	> 100	> 100	> 100	> 100	> 100	–
CCCCCC(/C=N/N)C(O)(C(F)(F)F)C(F)(F)F (stereo not given)	7.3	> 10	> 10	> 10	> 10	6.69	> 10	> 10	> 10	> 10	–
CC1(C)O[C@@H]2[C@@H]3OC(=O)C[C@@H]3[C@@H](COCc3ccccc3)[C@@H]2O1	> 100	> 100	> 100	> 100	> 100	> 100	> 100	> 100	> 100	> 100	–
CC(=O)OC1COC(Nn2c(=O)[nH]c3ccccc3c2=O)C(OC(C)=O)C1OC(C)=O (stereo not given)	> 100	> 100	> 100	–	> 100	–	> 100	> 100	> 100	> 100	–
CCOC1SC(SC)=NN1C(=O)C(OC(C)=O)C(OC(C)=O)C(OC(C)=O)C(OC(C)=O)C(=O)N1N=C(SC)SC1OCC (stereo not given)	> 100	> 100	> 100	> 100	> 100	> 100	> 100	> 100	> 100	> 100	–
CN(C(=O)c1cccs1)C(=S)N1CCN(c2ccccc2)CC1	–	> 100	> 100	> 100	> 100	> 100	> 100	> 100	> 100	> 100	–
O=C(O)c1cc(Sc2ccc([N+](=O)[O-])c(C(=O)O)c2)ccc1[N+](=O)[O-]	> 100	> 100	> 100	> 100	> 100	> 78.9	> 100	> 100	> 100	> 100	> 100
[N-]=[N+]=NC1=C(c2ccccc2)C(=O)c2cccc3cccc1c23	–	> 100	> 100	> 100	> 100	> 100	27	> 100	> 100	> 100	–
Cn1cnc([N+](=O)[O-])c1Sc1nc(N)nc2c1ncn2Cc1ccccc1	42.3	72.4	> 100	> 100	40.4	30.8	67.8	63.1	> 100	37.3	–

Source: PubChem BioAssay (NCI)
